Test results published in US10738041B2, “Ferroportin inhibitors” (Vifor (International) AG, priority 2015, dated 2020).

Tests used:
ferroportin (Fpn) = target: T1, ferroportin (Fpn) (Mus musculus, UniProt Q9JHI9); assay: Hepcidin Internalization Assay (J774); format: cell-based; settings: average of multiple measurements; inhibition of TMR-hepcidin (25 nM) internalization into J774 cells; read-out: J774 IC50
T1 construct: host or cells: J774 mouse macrophage cell line, Fe(III)-NTA induced
T1 sequence (Q9JHI9 1-570): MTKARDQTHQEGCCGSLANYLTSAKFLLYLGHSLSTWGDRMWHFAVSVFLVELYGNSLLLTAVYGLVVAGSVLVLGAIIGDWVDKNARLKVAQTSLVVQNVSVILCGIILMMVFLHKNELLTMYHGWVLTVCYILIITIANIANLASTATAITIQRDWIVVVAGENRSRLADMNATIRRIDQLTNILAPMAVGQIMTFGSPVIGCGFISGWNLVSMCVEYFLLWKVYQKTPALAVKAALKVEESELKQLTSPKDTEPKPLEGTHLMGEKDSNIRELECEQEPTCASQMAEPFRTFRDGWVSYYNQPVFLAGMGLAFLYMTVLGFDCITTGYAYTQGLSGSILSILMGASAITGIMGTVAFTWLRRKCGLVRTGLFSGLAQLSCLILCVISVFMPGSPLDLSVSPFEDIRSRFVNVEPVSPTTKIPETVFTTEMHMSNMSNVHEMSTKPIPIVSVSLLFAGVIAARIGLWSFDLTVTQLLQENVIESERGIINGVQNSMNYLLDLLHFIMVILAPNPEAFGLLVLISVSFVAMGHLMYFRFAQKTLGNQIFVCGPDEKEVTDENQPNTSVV
In short: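 Mouse J774 macrophages, loaded overnight with 200 μM Fe(III)NTA, incubated 2 h at 37 °C with test compounds and TMR-labeled hepcidin. Cell-associated TMR fluorescence, a proxy for hepcidin binding to Fpn and internalization, quantified by automated imaging with Hoechst nuclear counterstain after fixation; IC50 from log(inhibitor) vs. response fit, triplicates.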

human Fpn = target: T2, human Fpn (Homo sapiens, UniProt Q9NP59); assay: Biophysical Ferroportin-Hepcidin Binding Assay (fluorescence polarization); settings: average of multiple measurements; 1 μM human Fpn, 20 nM TMR-hepcidin; read-out: FP IC50
T2 construct: FLAG (C); made in house; host or cells: Pichia pastoris
T2 sequence (Q9NP59 1-571): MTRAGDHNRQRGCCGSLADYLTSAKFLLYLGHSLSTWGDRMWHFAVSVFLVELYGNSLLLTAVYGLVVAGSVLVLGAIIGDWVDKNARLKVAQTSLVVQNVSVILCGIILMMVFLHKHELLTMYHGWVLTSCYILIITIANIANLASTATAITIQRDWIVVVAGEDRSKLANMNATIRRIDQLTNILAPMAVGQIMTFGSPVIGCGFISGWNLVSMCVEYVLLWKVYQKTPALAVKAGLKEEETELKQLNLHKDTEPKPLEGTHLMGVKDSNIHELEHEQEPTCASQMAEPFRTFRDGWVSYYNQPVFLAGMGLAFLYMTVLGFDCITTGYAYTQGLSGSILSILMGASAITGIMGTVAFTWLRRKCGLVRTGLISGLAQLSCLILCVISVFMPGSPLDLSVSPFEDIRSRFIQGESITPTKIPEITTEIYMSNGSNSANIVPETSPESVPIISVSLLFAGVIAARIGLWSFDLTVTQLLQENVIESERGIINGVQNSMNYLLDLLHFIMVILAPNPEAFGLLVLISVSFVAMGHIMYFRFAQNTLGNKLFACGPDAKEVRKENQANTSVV
Protocol: This biophysical assay was developed to confirm inhibition of hepcidin binding to ferroportin (Fpn) more directly. Incubation of TMR-hepcidin with purified human Fpn isolated from Pichia pastoris yeast cells expressing human Fpn with a C-terminal FLAG affinity tag (Bonaccorsi di Patti, 2014) leads to increased fluorescence polarization (FP) of the TMR-hepcidin ligand. Small molecular weight Fpn inhibitors were tested for inhibition of binding of TMR-hepcidin to Fpn, as detected by dose-dependent decrease of the TMR FP signal, as described in detail below.
8 μl of serial dilutions of test compounds were added in duplicates to reach final Fpn and TMR-hepcidin concentrations of 1 μM and 20 nM, respectively. Plates were incubated for 90 minutes at room temperature and parallel (S) and perpendicular (P) fluorescence was measured in a Synergy H1 fluorescence reader (BioTek). FP values were calculated in mP according to the following formula.

human Fpn-GFP fusion = target: T3, human Fpn-GFP fusion (Homo sapiens, UniProt Q9NP59); assay: Inhibition of ferroportin mediated iron export activity in an iron response assay (BLAzer); format: cell-based; settings: average of multiple measurements; HEK-293 cell line #354; read-out: BLAzer EC50
T3 construct: expressed in transfected cells; host or cells: HEK-293 cell line #354 (derivative of HEK-293 Tet-ON Advanced, Clontech)
T3 sequence (Q9NP59 1-571): T2 sequence (Q9NP59 1-571)
Text: Intracellular iron levels are indirectly measured in this assay by monitoring the activity of a beta-lactamase (BLA) reporter gene fused to the human ferritin promoter and the associated iron regulatory element (IRE) contained within the 5′ untranslated region of the ferritin mRNA. Expression of ferroportin (Fpn) in such a cell line leads to iron efflux and lower iron levels as reflected by lower activity of the reporter gene. On the other hand, inhibition of Fpn-mediated iron efflux results in elevated cellular iron levels which is detected as increased reporter gene activity. Small molecular weight Fpn inhibitor compounds were tested for dose-dependent effects in this in vitro iron response assay as described below.
The HEK-293 cell line #354 was generated by stable integration of (i) a human Fpn-GFP fusion construct inserted in a derivative of the doxycycline-inducible pTRE-Tight-BI plasmid (Clontech, Cat. 631068) and (ii) a human ferritin promoter-BLA reporter gene into a derivative of the HEK-293 Tet-ON Advanced cell line (Clontech). […] After overnight incubation, 10 μl/well of dilution series of the test compounds were added in quadruplicates and plates were further incubated overnight at 37° C. with 5% CQ. Cells were washed 3 times with HBSS leaving 25 μl per well. BLA activity was detected by adding 5 μl/well of the GeneBlazer reagent CCF4-AM (Invitrogen, Cat. K1085) to the cells. After incubation of the plates in the dark at 18° C. for 60 min., blue and green fluorescence signals were measured in a Safre2 fluorescence plate reader (Tecan) with excitation at 410 nm and emissions at 458 nm (blue) and 522 nm (green). The ratio of blue/green fluorescence as a measure for BLA activity was calculated and EC50 values were determined with the calculated blue/green fluorescence ratios as described for the hepcidin internalization assay.

Compound | IC50 (ferroportin (Fpn)) | IC50 (human Fpn) | EC50 (human Fpn-GFP fusion)
O=C(NCc1ncccc1F)c1cncc(C2CN(CCc3nc4c(F)cccc4[nH]3)C2)c1 [compound 248] | 363 nM | 306 nM | 6.34 µM
O=C(CCNCCc1nc2ccccc2[nH]1)NCC(=O)NCc1ncccc1F [compound 190] | 740 nM | 660 nM | 27.3 µM
O=C(CNC(=O)C1CN(CCc2nc3ccccc3[nH]2)C1)NCc1ncccc1F [compound 201] | 1930 nM | 790 nM | 39.4 µM
Cc1ccc(CNC(=O)c2csc(CCNCc3nc4ccccc4[nH]3)n2)nc1 [Example 97] | 270 nM | 2130 nM | 1.81 µM
O=C(NCc1ncccn1)c1csc(CCNCc2nc3ccccc3[nH]2)n1 [Example 61] | 560 nM | 1690 nM | 37.5 µM
O=C(NCc1cnccn1)c1csc(CCNCc2nc3ccccc3[nH]2)n1 [Example 46] | 590 nM | 4340 nM | 38.7 µM
O=C(NCc1ncc(C(F)(F)F)cc1Cl)c1csc(CCNCc2nc3ccccc3[nH]2)n1 [Example 101] | 280 nM | 315 nM | 2.92 µM
O=C(NCc1ncccc1Cl)c1ncn(CCNCc2nc3ccccc3[nH]2)n1 [Example 170] | 482 nM | 280 nM | 3.96 µM
N#Cc1ccccc1CNC(=O)c1csc(CCNCc2nc3ccccc3[nH]2)n1 [Example 71] | 240 nM | 508 nM | 1.79 µM
O=C(NCc1ncccc1F)N1CCCC(CCNCCc2nc3ccccc3[nH]2)C1 (centres unmarked) [compound 200] | 3140 nM | 5650 nM | 45.1 µM
Cc1cc(CNC(=O)c2csc(CCNCc3nc4ccccc4[nH]3)n2)ccn1 [Example 99] | 2990 nM | 4330 nM | 22.8 µM
N#Cc1ccc(CNC(=O)c2csc(CCNCc3nc4ccccc4[nH]3)n2)cn1 [Example 56] | 410 nM | 566 nM | 10.4 µM
Cc1ccc2[nH]c(CNCCc3nc(C(=O)NCc4ccccc4)cs3)nc2c1 [Example 32] | 2600 nM | 1210 nM | 1.87 µM
O=C(c1csc(CCNCc2nc3ccccc3[nH]2)n1)N1CCc2ncccc2C1 [Example 107] | 1320 nM | 5740 nM | 21 µM
O=C(NCc1ccccc1)c1csc(CCNCc2cc3ccccc3[nH]2)n1 [Example 24] | 2800 nM | – | 12.8 µM
O=C(NCc1ncc(F)cc1Cl)c1csc(CCNCc2nc3ccccc3[nH]2)n1 [Example 102] | 58 nM | 258 nM | 1.85 µM
N#Cc1ccc2[nH]c(CCNCCc3nc(C(=O)NCc4ncccc4F)co3)nc2c1 [Example 265] | 70 nM | – | 2 µM
O=C(NCc1ncc(F)cc1F)c1csc(CCNCc2nc3ccccc3[nH]2)n1 [Example 108] | 130 nM | 478 nM | 4.12 µM
Cn1cncc1CNC(=O)c1csc(CCNCc2nc3ccccc3[nH]2)n1 [Example 84] | 400 nM | 2410 nM | 13.2 µM

Compound | IC50 (ferroportin (Fpn)) | IC50 (human Fpn) | EC50 (human Fpn-GFP fusion)
O=C(NCc1ncccc1F)c1cncc(CCNCCc2nc3cc(F)ccc3[nH]2)c1 [compound 245] | 188 nM | 295 nM | 6.14 µM
O=C(NCc1ccncn1)c1csc(CCNCc2nc3ccccc3[nH]2)n1 [Example 44] | 1330 nM | 5340 nM | 18.3 µM
O=C(NCC1CCCCC1)c1csc(CCNCc2nc3ccccc3[nH]2)n1 [Example 13] | 1700 nM | 530 nM | 27 µM
O=C(NCc1ncccc1C(F)(F)F)c1csc(CCNCc2nc3ccccc3[nH]2)n1 [Example 37] | 810 nM | 1900 nM | 7.92 µM
CN1CCN(c2ccccc2CNC(=O)c2csc(CCNCc3nc4ccccc4[nH]3)n2)CC1 [Example 68] | 2500 nM | 4060 nM | 10.4 µM
Cc1cnc(CNC(=O)c2csc(CCNCc3nc4ccccc4[nH]3)n2)c(C)c1 [Example 57] | 100 nM | 430 nM | 2.11 µM
O=C(NCc1ccccc1S(=O)(=O)N1CCOCC1)c1csc(CCNCc2nc3ccccc3[nH]2)n1 [Example 75] | 530 nM | 1830 nM | 6 µM
Cc1cc(C)c(CNC(=O)c2csc(CCNCc3nc4ccccc4[nH]3)n2)cn1 [Example 105] | 77 nM | 420 nM | 2.63 µM
O=C(c1csc(CCNCc2nc3ccccc3[nH]2)n1)N1CCc2ccccc2C1 [Example 15] | 1600 nM | 1470 nM | 2.22 µM
O=C(NCc1ccc(F)cn1)c1csc(CCNCc2nc3ccccc3[nH]2)n1 [Example 43] | 250 nM | 1520 nM | 30.9 µM
Cn1ccc(CNC(=O)c2csc(CCNCc3nc4ccccc4[nH]3)n2)n1 [Example 86] | 480 nM | 4960 nM | 22.3 µM
Cn1nccc1CNC(=O)c1csc(CCNCc2nc3ccccc3[nH]2)n1 [Example 88] | 780 nM | 6760 nM | 13.1 µM
O=C(NC1CCCc2cccnc21)c1csc(CCNCc2nc3ccccc3[nH]2)n1 (centres unmarked) [Example 38] | 30 nM | 233 nM | 2.98 µM
O=C(NCc1ncccc1F)c1cccc(CCNCCc2nc3ccccc3[nH]2)c1 [Example 235] | 910 nM | 295 nM | –
O=C(NCc1ccccc1)c1csc(CCNCc2ccccn2)n1 [Example 11] | 20900 nM | 7830 nM | –
O=C(NCc1ncccc1F)c1cncc(CCNCCc2nc3ccccc3[nH]2)c1 [compound 229] | – | 43 nM | 4.06 µM
CC(NC(=O)c1csc(CCNCc2nc3ccccc3[nH]2)n1)c1ccccc1 (centres unmarked) [Example 73] | 370 nM | 1000 nM | –
O=C(NCc1ccccc1)c1csc(CCNCc2nc3cc(O)ccc3[nH]2)n1 [Example 30] | 12900 nM | 2330 nM | –
